Measured values published in US9011853B2, “B7-H4 fusion proteins and methods of use thereof” (Amplimmune, Inc., priority 2009, dated 2015).

Tests used:
[1] = test system: lymph node cells and splenocytes; assay: In vitro antigen-specific recall responses of cells from treated R-EAE mice; assay type: in vivo, mouse
Procedure: Draining lymph nodes (axillary, brachial, and inguinal) were harvested, and single cell suspensions were obtained by mashing through sterile 60-mesh wire screens. In 96-well microtiter plates, 5×10^5 erythrocyte-free (Tris-NH4Cl-treated) lymph node cells per well were incubated in supplemented culture medium with or without antigen at 37° C. in 7% CO2 for […] and then pulsed with 1 μCi/well of [^3H]-Thymidine for the final 48 h of culture. Proliferation was determined by uptake of [^3H]-Thymidine detected using a Topcount Microplate Scintillation Counter (Packard Instruments, Meridan, Conn.). Results are expressed as the mean of triplicate cultures from individual animal±SEM. Supernatants were collected at 72 hr for cytokine analysis. Cytokine measurements were performed using the Mouse Cytokine 10-Plex system and Luminex Liquidchip analyzer (Qiagen, Valencia, Calif.) or ELISA.
Lymph nodes were isolated from the murine B7-H4-Ig and Control IgG injected EAE mice as described above. T cells were harvested and were elicited with PLP139-151, the disease inducing dominant epitope, and PLP178-191, the spread epitope-specific peptide, in vitro. [^3H]-thymidine was added to the in vitro stimulation assay to analyze T cell proliferation.
Lymph nodes were isolated from Control IgG and murine B7-H4-Ig treated mice as described above. T cells were harvested and immune responses were elicited with PLP139-151, the disease inducing dominant peptide, and PLP178-191, the spread epitope peptide, in vitro. Supernatant was collected and analyzed for IFN-γ via commercially available ELISA kit.
Draining lymph nodes were harvested from the animals, and single cell suspensions prepared as described above and reactivated in vitro in the presence of anti-CD3 (0.1-10 μg/mL), PLP139-151 (1-20 μg/mL), or OVA323-339 (1-20 μg/mL). T cell proliferation in vitro was analyzed by [^3H] thymidine incorporation.
The impact of B7-H4-Ig treatment on epitope spreading was also examined. To do so, spleens and draining lymph nodes were collected from the same mice that were analyzed for the number and phenotype of CD4^+ T cells. SJL mouse were immunized with 50 μg of PLP139-151 peptide emulsified in CFA. Mice were treated B7-H4-Ig during remission: 60 or 100 ug per dose, 3 doses/wk, for 2 weeks (6 doses). On Day 35 total splenocytes and lymph node cells (5×10^5 cells per 200 ul culture) were activated in separate wells per mouse in the presence of anti-CD3 (1 ug/ml), PLP139-151 or PLP178-191 (20 μg/mL). At 24 hours following the initiation of culture, 1 μCi of ^3[H] tritiate thymidine was added to each well and wells were analyzed at 72 hours post the initiation of culture. This presented as the mean CPM. […] Therefore, B7-H4-Ig treatment during remission of ongoing R-EAE in SJL mice appears to decrease epitope spreading via an increase in the number of Treg cells. […] The higher dose appears more efficacious to lower the disease score at later time points (beyond Day 42 post disease initiation).

DBA/1J mice = assay: Collagen-induced arthritis (CIA) prophylactic model, arthritis score; assay type: in vivo, mouse; conditions: 0.5 mg (20 mg/kg) IP from day of CII immunization, 2 times each week up to 6 weeks; days 33 and beyond; vs vehicle (FIG. 3)
Description: CIA is a well-characterized mouse model for human RA, in which injection of collagen II (CII) into DBA/1J mice induces swelling and progressive inflammation in joints resulting in arthritis. […] B7-H4-Ig treatment continued 2 times each week, up to 6 weeks. On day 21, mice were rechallenged with CII emulsified in IFA. FIG. 2 outlines a brief experimental design. Day 40 was the last B7-H4-Ig treatment.

[2] = test system: naïve CD4^+CD62L^+ T cells; assay: In vitro Th2 polarization, proliferation; assay type: cell-based, mouse; conditions: Th2 conditions: IL-2, IL-4, anti-IL12 and anti-IFN-γ (FIG. 23)
Description: B7-H4-Ig has no impact on Th2 cells using the same target, naïve CD4^+CD62L^+ T cells, under Th2 in vitro polarization conditions: IL-2, IL-4, anti-IL12 and anti-IFN-γ (FIG. 23).

[3] = test system: mRNAs associated with Th17 cells, Tregs, autoimmune disorders and inflammation; assay: Quantitative RT-PCR of mouse naïve T cells under Th17 differentiation cocktail; assay type: cell-based; conditions: 1 μg/mL, vs isotype control (Table 13, FIG. 54)
Procedure: CD4^+CD62L^+ naïve T cells were isolated from BALB/c mice as in the above examples, and activated by anti-CD3 and anti-CD28 bound beads in the presence of Th17 differntiation cocktail (TGF-β1 (10 ng/mL), IL-6 (50 ng/mL), IL-23 (4 ng/mL), anti-IL-4 (10 μg/mL), anti-IFN-γ (5 μg/mL) and anti-IL-2 (5 μg/mL)). Cells were incubated with either B7-H4-Ig (two different lots—#22 and #23—at 1 μg/mL) or isotype control. RNA was isolated from the cells and used for quantitative RT-PCR to test the expression levels of a large number of mRNAs associated with Th17 cells, Tregs, autoimmune disorders and inflammation (SA Biosciences mouse Th17 panel).

[4] = Day 35 splenocytes and lymph node cells, treated during remission 60 or 100 ug per dose, 3 doses/wk, 2 weeks (FIGS. 45A, 45B)

## B7-H4-Ig: B7-H4 extracellular domain fused to Ig Fc; bare label is the human protein in Example 3, murine protein in Examples 1, 2, 5, 7-11
[1]; [4]
  proliferative response to PLP139-151: decreased the proliferative response
  proliferative response to PLP178-191: decreased the proliferative response
[1]; administered on Day 0 (FIG. 38)
  IFN-γ production in ex vivo T cell recall with PLP139-151 peptide: specific inhibition of immune response to PLP139-151 peptide
[1]; draining lymph nodes, Day 10 study (FIG. 40)
  T cell proliferation when stimulated with anti-CD3: robust T cell proliferation
[1]; draining lymph nodes, Day 10 study, both 3 and 15 mg/kg doses (FIG. 40)
  T cell response to PLP139-151 peptide stimulation ([3H] thymidine): little to no response
DBA/1J mice
  overall arthritis scores: significantly lower than the scores for vehicle-injected CIA mice
[2]
  impact on Th2 cells (proliferation): no impact
[3]
  expression of mRNA involved in Th17 cell differentiation (RORc, IL-17A, IL-17F, IL-21, IL-22): downregulates the expression of mRNA involved in Th17 cell differentiation
